The values that follow come from PubChem BioAssay AID720512 (Broad Institute, 2013).

Broadly, the AC50 is the concentration giving half of the maximal activity seen.

Each structure is given as a SMILES string. The source made the active and inactive calls. No rule for the calls is given here.

The first assay addresses Toxin B (TcdB) glycohydrolase, Clostridioides difficile 630. In words: TcdB glycohydrolase inhibitors, dose response, biochemical, cherry-pick, plate reader (AID 720512). The conditions noted are these: recombinant TcdB glycohydrolase activity.
As for `COc1cc(/C=N/n2c(-c3ccccc3)n[nH]c2=S)ccc1O`, the AC50 was > 39 µM (inactive).
On the same count and under the same terms, with `CCOC(=O)/C(=N/Nc1ccc(Br)cc1)N1CC(C)OC(C)C1` (configuration not stated) the figure was 6.61 µM; with `COC1=C/C(=C/c2c(N)n3nc(CC(=O)N4CCOCC4)sc3nc2=O)C=CC1=O`, > 39 µM (inactive); with `Cc1ccc(C(=O)Nc2scc(-c3ccccc3)c2C(=O)O)cc1`, > 39 µM (inactive).
`c1ccc(OCCSc2nnc3sc4ccccc4n23)cc1`: the AC50 was > 39 µM (inactive).
As for `Cc1cc(C)c2nc(C)cc(N/N=C/c3ccc(O)cc3)c2c1`, the AC50 is > 39 µM (inactive).
As to `CCC(=O)N1CC[C@@H]2[C@@H](CO)N(C)c3ccc(-c4ccccc4)cc3[C@@H]21`, the AC50 was > 42 µM (inactive).

Still in this assay, the particulars now being: recombinant TcdB glycohydrolase activity, at 19.5 µM (top of the series).
As to `CCOc1ccc2ccccc2c1/C=N/NC(=O)c1ccncc1`, the “activity change, negative = inhibition” value was “inactive”.
`NC(=O)NN=C1CC2CC1C1C=CCC21` (configuration not stated): the “activity change, negative = inhibition” value was “inactive”.
`COc1ccc(C=NNC(=O)c2cc(C)oc2C)cc1O`: the “activity change, negative = inhibition” value was “inactive”.
With `CCC(=O)c1cn(CC(=O)Nc2cccc(C)c2C)c2ccccc12`, the “activity change, negative = inhibition” value is “inactive”.
On the same count and under the same terms, under `CC(=O)NC(Cc1ccccc1)C(=O)Oc1ccc2ccccc2c1` (configuration not stated) stands “inactive”; under `CCCCc1[nH]c(=O)c(C#N)c2c1CCCC2`, “inactive”; under `Cc1ccc(C(=O)NCCn2cc(SCC(=O)Nc3cc(C)on3)c3ccccc32)cc1`, “inactive”.
For `CC1C(c2ccc3c(c2)OCO3)c2cc3c(cc2OC1N1CCOCC1)OCO3` (configuration not stated), the “activity change, negative = inhibition” value is “inactive”.
The same measure, in the same setting: under `O=C1CSC(=Nc2ccc(O)cc2)N1` stands “inactive”; under `O=C(NCc1cccnc1)c1cc(C2CCCCN2S(=O)(=O)c2cccc3cccnc23)on1` (configuration not stated), “inactive”; under `CCOC(=O)[C@H]1[C@H]2COc3ccc(OC)cc3[C@@H]2N2C(=O)CN(Cc3ccc(Cl)cc3)C(=O)[C@@]12C`, “inactive”.
As to `S=c1nc(-c2cccc(Cl)c2)[nH][nH]1`, the “activity change, negative = inhibition” value is “inactive”.
Same read-out and setting: under `Cc1csc(N=Nc2ccc(N(C)C)cc2)[n+]1[O-]` stands “inactive”; under `COc1cc(OC)c(OC)cc1/C=C/c1ccnc2ccccc12`, “inactive”.
Still for that read-out and setting: under `Cc1ccc(S(=O)(=O)N2CCC(C(=O)OCC(=O)NCCc3ccccc3)CC2)cc1C` stands “inactive”; under `Cc1nc2ccccc2nc1OCC(=O)Nc1ccc(F)cc1`, “inactive”; under `CNC(=O)C1CCN(S(=O)(=O)c2c(C)noc2/C=C/c2cccc(C)c2)CC1`, “inactive”.
In the case of `Fc1ccc(-c2nc3ccc(Br)cn3c2Cc2ccccc2)cc1`, the “activity change, negative = inhibition” value was “inactive”.
With `COc1cc2ccccc2cc1C(=O)N/N=C/c1cccs1`, the “activity change, negative = inhibition” value was “inactive”.
In the case of `Cc1ccc(C(=O)Nc2ccc(N3CCCCC3)cc2)cc1`, the “activity change, negative = inhibition” value is “inactive”.
On the same count and under the same terms, under `CC(C)Sc1nnc(NC(=O)c2ccco2)s1` stands “inactive”.
On to `Nc1cc(N)cc(C(=O)OCC(=O)Nc2cc(S(=O)(=O)N3CCCCC3)ccc2Cl)c1`, for which the “activity change, negative = inhibition” value is “inactive”.
Same read-out and setting: under `O=C(COc1ccc2ccc(=O)oc2c1)NCCN1CCOCC1` stands “inactive”.
As to `COc1ccc(C(=O)NC(C(=O)NCc2ccccc2OC)C(C)C)cc1` (configuration not stated), the “activity change, negative = inhibition” value was “inactive”.
As for `Cc1cc(NC(=O)CCCN2C(=O)c3cccc4cccc(c34)C2=O)no1`, the “activity change, negative = inhibition” value was “inactive”.
As for `CCOc1ccccc1/C=C/c1onc(C)c1S(=O)(=O)N1CCC(C(=O)NC(C)C)CC1`, the “activity change, negative = inhibition” value is “inactive”.
As for `CCCS(=O)(=O)NC(=O)C1(C)CCN(C(=O)c2ccco2)C1` (configuration not stated), the “activity change, negative = inhibition” value is “inactive”.
With `Cn1c(SCc2nnc(-c3ccccc3)o2)nc2ccccc21`, the “activity change, negative = inhibition” value was “inactive”.
For `Cc1cc(C)cc(N=C2NC(=O)CS2)c1`, the “activity change, negative = inhibition” value is “inactive”.
`O=C(CN1C(=O)NC2(CCCc3ccccc32)C1=O)NCc1cccs1` (configuration not stated): the “activity change, negative = inhibition” value is “inactive”.
For the compound `COc1ccc(S(=O)(=O)Nc2ccc3oc(C)c(C(=O)O)c3c2)cc1`, the “activity change, negative = inhibition” value is “inactive”.
For `CC1(C)Cc2nc(Cl)c(C#N)cc2CO1`, the “activity change, negative = inhibition” value is “inactive”.
For the compound `COCC(=O)N1CC[C@@H]2[C@@H](CO)N(C)c3ccc(-c4ccccc4)cc3[C@@H]21`, the “activity change, negative = inhibition” value was “inactive”.
As to `COCCCNC(=O)C1CCN(S(=O)(=O)c2c(C)noc2/C=C\c2ccc(OC)cc2)CC1`, the “activity change, negative = inhibition” value is “inactive”.
Still for that read-out and setting: with `CN(C(=O)Cn1c(=O)oc2cc(S(=O)(=O)N3CCCC3)ccc21)C1CCCCC1` the entry was “inactive”.
As for `Cc1cnc(C(=O)OCC(=O)Nc2ccc(OCc3ccccc3)cc2)cn1`, the “activity change, negative = inhibition” value was “inactive”.
With `CC[C@H](C)[C@H]1CNC(=S)N1CC1CCN(CCCC2CCCC2)CC1`, the “activity change, negative = inhibition” value is “inactive”.
`COc1cc(/C=N/Nc2ccccn2)ccc1O`: the “activity change, negative = inhibition” value is “inactive”.
`COc1ccc(C2=NS(=O)(=O)N(C)C(C(=O)NC(C)c3ccccc3)=C2)cc1OC` (configuration not stated): the “activity change, negative = inhibition” value is “inactive”.
As for `COc1ccc(CNC(=O)C2CCN(S(=O)(=O)c3c(C)noc3/C=C/N(C)C)CC2)cc1`, the “activity change, negative = inhibition” value is “inactive”.
`Nc1ccccc1-c1nc2ccncc2[nH]1`: the “activity change, negative = inhibition” value is “inactive”.
Turning to `CNC(=O)C1CCN(S(=O)(=O)c2c(C)noc2/C=C/c2ccccc2F)CC1`, the “activity change, negative = inhibition” value is “inactive”.
On the same count and under the same terms, under `O=C(CCn1cnc2ccccc21)N/N=C/c1ccc(O)cc1` stands “inactive”.
For `COCC#Cc1ccc2c(c1)O[C@@H](CN(C)C(=O)CC1CC1)[C@H](C)CN([C@@H](C)CO)S2(=O)=O`, the “activity change, negative = inhibition” value was “inactive”.
On the same count and under the same terms, with `O=S(=O)(NC1CCCCCCC1)c1ccc(F)cc1` the entry was “inactive”; with `CC(Sc1nc2ccccc2n1C)C(=O)Nc1ccc(N2CCOCC2)cc1` (configuration not stated), “inactive”; with `Cc1ccc(C(=O)Nc2ncc([N+](=O)[O-])s2)cc1`, “inactive”.
Regarding `COc1ccc(C(=O)NC(CC(=O)O)c2cc([N+](=O)[O-])ccc2Cl)c(SC)c1` (configuration not stated), the “activity change, negative = inhibition” value is “inactive”.
Take `O=C1COc2ccc(C(=O)COC(=O)CNS(=O)(=O)c3cccc(F)c3)cc2N1`: the “activity change, negative = inhibition” value was “inactive”.
In the case of `Cc1ccccc1S(=O)(=O)N1CCCc2nc(C)c(C)cc21`, the “activity change, negative = inhibition” value is “inactive”.
Consider `COc1cc(C(=O)Nc2scc(-c3ccccc3)c2C(=O)O)cc(OC)c1OC`, for which the “activity change, negative = inhibition” value was “inactive”.
Still for that read-out and setting: with `O=C(Cc1ccccn1)c1ccncc1` the entry was “inactive”.
As for `CC1CCCN(C(=S)Nc2ccc(F)cc2)C1` (configuration not stated), the “activity change, negative = inhibition” value is “inactive”.
`Cc1cc(C)c(S(=O)(=O)c2ccc(Cl)cc2C)c(Cl)n1`: the “activity change, negative = inhibition” value was “inactive”.
The same measure, in the same setting: with `O=[N+]([O-])c1ccc(S(=O)(=O)Nc2nc(-c3ccccc3)cs2)cc1` the entry was “inactive”; with `COc1ccc(-c2nc3ccc([N+](=O)[O-])cc3[nH]2)cc1`, “inactive”.
On to `Fc1cccc(NC(=S)NNc2c3ccccc3nc3ccccc23)c1`, for which the “activity change, negative = inhibition” value is “inactive”.
For the compound `COc1ccc(S(=O)(=O)N2CCC[C@H]2C(=O)N2CCC[C@H]2C(=O)NCc2ccncc2)cc1C`, the “activity change, negative = inhibition” value is “inactive”.
As for `CC1CCN(CCCn2c(=S)[nH]c3c(sc4ccccc43)c2=O)CC1`, the “activity change, negative = inhibition” value was “inactive”.
Still for that read-out and setting: with `Oc1ccc(CCNc2ncnc3ccc(Cl)cc23)cc1` the entry was “inactive”; with `C[C@H]1CN([C@@H](C)CO)C(=O)c2c(c3ccccc3n2C)-c2ccccc2CO[C@H]1CN(C)C`, “inactive”; with `COc1ccc(C2=NS(=O)(=O)N(C)C(C(=O)N(C)Cc3ccccc3)=C2)cc1OC`, “inactive”.
Consider `COc1ccc([N+](=O)[O-])cc1NC(=S)NC(C)=O`, for which the “activity change, negative = inhibition” value was “inactive”.
As for `CC(=O)Nc1ccc(N(C(=O)c2ccco2)C(C(=O)NC2CCCC2)c2cccs2)cc1` (configuration not stated), the “activity change, negative = inhibition” value was “inactive”.
On the same count and under the same terms, under `O=C(c1ccc2c(c1)N(Cc1ccccc1)C(=O)c1ccccc1S2)N1CCCC1` stands “inactive”; under `CCOC(=O)c1cccc(NC(=O)CCNS(=O)(=O)c2cccc3nonc23)c1`, “inactive”; under `Cc1ccc(NS(=O)(=O)c2ccc(C)c(NC(=S)NCCN3CCOCC3)c2)c(C)c1`, “inactive”.
Take `Cc1cc(C)c(C)c(S(=O)(=O)N2CCCCC2C(=O)O)c1C` (configuration not stated): the “activity change, negative = inhibition” value is “inactive”.
The same measure, in the same setting: with `COc1ccc(NC(=O)Nc2nc(C)cc(C)n2)c(OC)c1` the entry was “inactive”; with `O=C(NNC(=O)c1cccc2ccccc12)c1cccc(F)c1`, “inactive”; with `C[C@H](CO)N1C[C@H](C)[C@@H](CN(C)CC2CCCCC2)Oc2ccc(NC(=O)CCN3CCOCC3)cc2C1=O`, “inactive”.
As for `CNC(=O)C[C@H]1CC[C@@H]2[C@H](COc3ccc(NC(=O)Nc4ccc(C)cc4)cc3C(=O)N2C)O1`, the “activity change, negative = inhibition” value is “inactive”.
`O=C(Nc1ccncc1)c1ccc(-c2ccccc2)cc1`: the “activity change, negative = inhibition” value is “inactive”.
Same read-out and setting: with `COc1ccc(-c2nc(N)ncc2-c2ccccc2OC)c(O)c1` the entry was “inactive”.

The assay is the same for the next values; noted with them: recombinant TcdB glycohydrolase activity, at 21 µM (top of the series).
As for `CN1C(=O)c2cc(NC(=O)Nc3ccccc3Cl)ccc2OC[C@H]2O[C@@H](CC(=O)NCCCN3CCOCC3)CC[C@H]21`, the “activity change, negative = inhibition” value is “inactive”.
